The values that follow come from paper PMC6241247, “Development and Application of an UHPLC-MS/MS Method for Comparative Pharmacokinetic Study of Eight Major Bioactive Components from Yin Chen Hao Tang in Normal and Acute Liver Injured Rats” (Evidence-based Complementary and Alternative Medicine : eCAM, 2018).

Data set [1] in a line: Plasma pharmacokinetics after oral administration of YCHT in control (normal) rats, UHPLC-MS/MS. The format is in vivo, Sprague-Dawley rats. The source says:
The validated method was used for the pharmacokinetic study.
P<0.05 represented statistical significance.

A further data set relates to P-glycoprotein (P-gp). Set-up: method as in PMID 25776492, PMID 26121397. The settings on record: cited from earlier work.
Data set [2] is described as follows: Plasma pharmacokinetics after oral administration of YCHT in model (CCl4-induced acute liver injury) rats, UHPLC-MS/MS. The procedure: The quality control (QC) and plasma samples were analyzed by an Agilent 6470 triple quadrupole LC–MS system (Agilent Technologies, Inc., Santa Clara, CA, USA), which consists of an Agilent 1290 Infinity II system connected to a triple quadrupole MS analyzer with an Agilent Jet Stream technologies electrospray ionization (ESI) interface. The Agilent 1290 LC system is equipped with degasser (G7116B), high speed pump (G7120A) and multisampler (G7167B). The samples (2 μL) were injected into the LC system. A MassHunter workstation was applied for LC–MS control and data acquisition.
Chromatographic separation was conducted with a CAPCELL PAK ADME (2.1 mm × 100 mm, 3 μm; Shiseido Co., Ltd., Tokyo, Japan). The mobile phase included 0.1% formic acid (A) and methanol (B), and the flow rate was 0.3 mL/min. Iridoid glycosides and anthraquinones were detected in the isocratic elution, which was kept 80% B for 5.5 min in the negative mode. The others were separated in the positive mode with another gradient program, which was maintained at 45% B for 0.5 min, then increased to 95% B in 2 min, and maintained at 95% B until 4.5 min, and the post time is 2 min.
The optimal parameters for the ESI interface were as follows: nebulizer, 45 psi; dry gas, 10 L/min; dry temp, 350°C; sheath gas, 11 L/min; sheath gas temp, 350°C; capillary voltage, 4000 V (in the positive mode) and 3500 V (in the negative mode); and delta EMV, 200 V. The MS parameters for iridoid glycosides and anthraquinones were improved in the negative mode, and the MS parameters for the other analytes were improved in positive mode.
The animals were randomly divided into the control group (n = 6) and the model group (n = 6): the model rats, i.e., acute liver injury rats, were induced by intraperitoneal injections of CCl4 diluted with olive oil (1:1, v/v) at a dose of 1.5 mL/kg.bw every day for three days, and the rats in the control group were administered with olive oil.
After being thawed at room temperature, 100 μL plasma was put in a 1.5 mL centrifuge tube, and then 100 μL IS solution and 300 μL acetonitrile was added. After the mixture was vortexed for 1 min, it was centrifuged at 12000 rpm for 10 min at 4°C to precipitate the protein. Then the supernatant was transferred to another clean centrifuge tube, and evaporated to dryness under nitrogen stream, the residue was reconstituted in 50 μL methanol-water (1:1, v/v). After centrifuging at 12000 rpm for 10 min at 4°C again, a 2 μL aliquot of supernatant was injected for LC–MS/MS analysis.
The validated method was used for the pharmacokinetic study. Standard diet was withheld over night before oral administration of YCHT, but with free access to water. And YCHT (60 g/kg) was administered to the rats by gastric perfusion, equivalent to 10.09 mg/kg of scoparone, 0.49 mg/kg scopoletin, 17.16 mg/kg of geniposide, 9.86 mg/kg of rhein, 2.66 mg/kg of aloe-emodin, 2.24 mg/kg of chrysophanol, 0.83 mg/kg of emodin, and 0.58 mg/kg of physcion.
A series of blood samples (0.3 mL) were collected from the rats' postorbital venous plexuses at 0 (pre-dose), 5, 10, 15, 30, 45, 60, 90, 120, 240, 480, 600, 720 and 1440 min, and put into heparinized tubes. The heparinized plasma was immediately centrifuged to separate at 3000 g for 10 min and stored at −80°C before experiments. The analytes' concentrations in plasma were determined by LC–MS/MS methods described above.
The plasma concentrations were expressed as arithmetic mean ± standard deviation (SD). And the mean concentration–time curves were calculated and plotted by DAS (version 3.0, Bio Guider Co., Shanghai, China), and the PK parameters consist of elimination half-life (t1/2), area under the plasma concentration-time curve (AUC), and mean residence time (MRT). The maximum plasma concentrations (Cmax) and corresponding peak time (Tmax) were obtained from the observed data directly.

[3] abbreviates: Sprague-Dawley, rat, in vivo, po, 60 g/kg.
Setting [4] is: control rats, oral YCHT 60 g/kg, plasma, n = 6.
Setting [5] is: model (CCl4 liver injured) rats, oral YCHT 60 g/kg, plasma, n = 6.

In the case of `COc1cc2ccc(=O)oc2cc1O` [Scopoletin], in data set [1] (setting [3]), the CL/F (usually the apparent clearance, not corrected for the fraction that reaches the circulation) is 1180 mL/min/kg; the peak level (Cmax) was 3.53 ± 0.67 ng/mL; the MRT inf (commonly a mean duration of stay, worked out from the concentration-time curve) was determined as 6.9 ± 4.2 h; the MRT last (usually a mean duration of stay, worked out from the concentration-time curve) was 4.4 ± 0.44 h. In addition, in data set [1] (setting [3]), the Tmax – broadly, the time at which the peak concentration occurs – is 0.19 ± 0.04 h and the half-life (as a rule, the time in which the quantity being followed falls by half) was 3.62 ± 3.85 h. Also, in data set [1] (setting [4]), the “AUC0–t” value was 5.86 ± 0.50 ug/L∗h and the “AUC0–∞” value came to 7.41 ± 2.53 ug/L∗h. Moreover, the P-gp substrate entry in the data set on P-glycoprotein (P-gp) is “not P-gp substrates”. For the same molecule, in data set [2] (Fr = (AUCmodel/AUCcontrol)∗100%, oral YCHT 60 g/kg), the “Fr (relative bioavailability)” value amounted to 123.38%. In data set [2] (setting [3]), the CL/F was 1100 mL/min/kg; the Cmax (in general, the maximum level reached in the sampled fluid or tissue) is 3.34 ± 1.19 ng/mL; the MRT inf worked out at 5.56 ± 0.63 h; the MRT last was determined as 4.81 ± 0.43 h. Further, in data set [2] (setting [3]), the Tmax is 7.8 ± 3 min and the half-life is 2.2 ± 0.82 h. In data set [2] (setting [5]), the “AUC0–t” value was 7.23 ± 1.84 ug/L∗h and the “AUC0–∞” value is 7.83 ± 2.00 ug/L∗h.
